Laboratory results published in ChEMBL document CHEMBL5356976, “Discovery of an adjuvant that resensitizes polymyxin B-resistant bacteria” (2024).
In brackets after ≈: the same amount, converted by molar mass. Activity calls are given as the source filed them. No cut-off for these calls is given here. Bridge positions count the residues as written; N and C are the ends. Square brackets hold non-standard residues; d marks the D form. Peptide text beside a SMILES is read from it. * marks the point of attachment. X1 = CC[C@H](C)CCCCC(=O)*; Dab = NCC[C@H](N)C(=O)O

Experiments:
[1] = test system: Cell membrane; experiment: Induction of membrane permeabilization in polymyxin-B resistant Escherichia coli MG1655 assessed as fluorescence increase incubated for 10 mins in presence of triton X-100 by DiSC3(5) dye based fluorescence spectrometer analysis; format: subcellular
[2] = test system: Cell membrane; experiment: Induction of membrane permeabilization in polymyxin-B resistant Escherichia coli MG1655 assessed as increase in fluorescence by DiSC3(5) staining based fluorescence spectrometer analysis (reference value: 8.5); format: subcellular
[3] = test system: Cell membrane; experiment: Induction of membrane permeabilization in polymyxin-B resistant Escherichia coli MG1655 assessed as fluorescence increase incubated for 10 mins in presence of polymyxin B by DiSC3(5) dye based fluorescence spectrometer analysis; format: subcellular
[4] = test system: Escherichia coli; experiment: Synergistic antibacterial activity against polymyxin B resistant Escherichia coli MG1655 assessed as fractional inhibitory concentration by checkerboard assay; format: functional
[5] = test system: Escherichia coli; experiment: Additive antibacterial activity against Escherichia coli MG1655 assessed as fold reduction in polymyxin B MIC at 100 mg/L by checkerboard assay; format: functional
[6] = test system: Escherichia coli; experiment: Synergistic antibacterial activity against polymyxin B resistant Escherichia coli MG1655 assessed as fold reduction in polymyxin B MIC by checkerboard assay; format: functional
[7] = test system: Staphylococcus aureus; experiment: Synergistic antibacterial activity against Staphylococcus aureus ATCC 29213 assessed as fold reduction in melittin activity at 75 mg/l by checkerboard assay; format: functional
[8] = test system: Cell membrane; experiment: Induction of membrane permeabilization in polymyxin-B resistant Escherichia coli MG1655 assessed as increase in fluorescence after 4 mins by DiSC3(5) staining based fluorescence spectrometer analysis (reference value: 8.5); format: subcellular
[9] = test system: Escherichia coli; experiment: Antibacterial activity against polymyxin-B resistant Escherichia coli MG1655; format: functional
[10] = test system: Escherichia coli; experiment: Antibacterial activity against Escherichia coli MG1655; format: functional
[11] = test system: Escherichia coli; experiment: Antibacterial activity against resistant Escherichia coli MG1655; format: functional
[12] = test system: Escherichia coli; experiment: Antibacterial activity against Escherichia coli MG1655 in presence of 50 mg/l perforone; format: functional
[13] = test system: Escherichia coli; experiment: Antibacterial activity against Escherichia coli MG1655 in presence of 6.25 mg/l perforone; format: functional

Question: What does the source list for `COc1c2c(nc3occc13)[C@@]1(OC)CCC(C)(C)O[C@@]1(O)CC2`?
Answer: Activity [1]: inactive; Flu intensity [2]: 29.2 a.u.; Activity [3]: inactive; FIC [4]: 0.19; fold change (FC) [5]: 2; fold change (FC) [6]: 16; fold change (FC) [7]: 2; Flu intensity [8]: 19.7 a.u.

Question: How did the Activity [9] turn out when `CC(C)C[C@@H]1NC(=O)[C@@H](Cc2ccccc2)NC(=O)[C@H](CCN)NC(=O)[C@@H](NC(=O)[C@H](CCN)NC(=O)[C@@H](NC(=O)[C@@H](N)CCN)[C@@H](C)O)CCNC(=O)[C@H]([C@@H](C)O)NC(=O)[C@H](CCN)NC(=O)[C@H](CCN)NC1=O` (H-[Dab]T[Dab][Dab][Dab][dF]L[Dab][Dab]T; lactam 4-C) was run?
Answer: Active

Question: `CC[C@H](C)CCCCC(=O)N[C@@H](CCN)C(=O)N[C@H](C(=O)N[C@@H](CCN)C(=O)N[C@H]1CCNC(=O)[C@H]([C@@H](C)O)NC(=O)[C@H](CCN)NC(=O)[C@H](CCN)NC(=O)[C@H](CC(C)C)NC(=O)[C@@H](Cc2ccccc2)NC(=O)[C@H](CCN)NC1=O)[C@@H](C)O` (X1-[Dab]T[Dab][Dab][Dab][dF]L[Dab][Dab]T; lactam 4-C) was tested. Which MIC [10] did it give?
Answer: 0.5 µg/mL (≈ 0.415 µM)

Question: And the MIC [11]?
Answer: 256 µg/mL (≈ 213 µM)

Question: What about the MIC [12] of the same compound?
Answer: 16 µg/mL

Question: And the MIC [9]?
Answer: 256 µg/mL (≈ 213 µM)

Question: And the MIC [13]?
Answer: 2 µg/mL

Question: For `CC[C@H]1OC(=O)[C@H](C)[C@@H](O[C@H]2C[C@@](C)(OC)[C@@H](O)[C@H](C)O2)[C@H](C)[C@@H](O[C@@H]2O[C@H](C)C[C@H](N(C)C)[C@H]2O)[C@](C)(O)C[C@@H](C)CN(C)[C@H](C)[C@@H](O)[C@]1(C)O` [AZITHROMYCIN], which MIC [10] is on record?
Answer: 4 µg/mL (≈ 5.34 µM)

Question: What about the MIC [11] of the same compound?
Answer: 128 µg/mL (≈ 171 µM)

Question: Which results are given for `C[C@H]1c2cccc(O)c2C(=O)C2=C(O)[C@]3(O)C(=O)C(C(N)=O)=C(O)[C@@H](N(C)C)[C@@H]3[C@@H](O)[C@@H]21.O` [DOXYCYCLINE]?
Answer: MIC [10]: 0.25 µg/mL; MIC [11]: 60 µg/mL
